# Columns and labels:
# [1] = system: male NMRI mice, mechanonociceptive threshold of the hind paws; experiment: Carrageenan-induced mechanical hyperalgesia, mechanonociceptive threshold by dynamic plantar aesthesiometry; type: in vivo, mouse; settings: for effect on mechanonociceptive threshold when applied alone: CBD 1 mg/kg, BCP 10 mg/kg; for suppression of the mechanonociceptive threshold by carrageenan: most CBD and BCP single pre-treatments, three hours after carrageenan; for basal mechanonociceptive threshold vs vehicle-treated mice: single doses i.p. (CBD 0.5, 1, 10, 30 mg/kg; BCP 1, 5, 10, 30 mg/kg), 30 min after administration; for carrageenan-induced drop of the mechanonociceptive threshold: 3 hours after carrageenan
# Description: (§1) CBD and BCP solutions (≥80%, FCC, FG) were dissolved in a solution containing 10% Tween 80 and 90% saline (vehicle) and were freshly prepared immediately before use. Mice were treated with drug solutions or vehicle control by intraperitoneal (i.p.) injection at a volume of 0.1 mL/10 g body weight. Acute paw injury was induced by intraplantar injection of 20 μL 3% carrageenan (dissolved in 0.9% NaCl, Sigma Aldrich, St. Louis, Mo., USA) into the right hind paw.
# (§2) Experiments were performed on 7-16-week-old male NMRI mice (30-50 g) provided with standard chow and water ad libitum. Mice were divided into groups and treated with a single dose of vehicle control (VEH), CBD, BCP, or CBD+BCP delivered i.p. 30 minutes after drug administration, measurements were taken to determine baseline values for mechanonociceptive thresholds and paw volumes. 35 minutes after drug administration, 20 μL of 3% carrageenan was injected intraplantarly (i.pl.) in the right hind paws. 3 hours after carrageenan administration, additional measurements were taken to determine the mechanonociceptive thresholds and paw volumes of the ipsilateral and contralateral paws.
# The mechanonociceptive threshold of the hind paws were measured by dynamic plantar aesthesiometry (DPA, Ugo Basile 37400, Comerio, Italy). Mice were placed into plexiglass boxes with a wire grid floor. After acclimation, the plantar surface was touched with a straight metal filament, lifting with increasing upward force (until the animal withdrew his paw or until the maximum force of 10 g was reached (maximum force of 10 g reached within 4 s). Mechanonociceptive thresholds are expressed in gram (g), while mechanical hyperalgesia is represented as a percentage decrease from the initial withdrawal thresholds (i.e., before drug and carrageenan administration) (Bolcskei K. et al., Pain. 2005; 117:368-76).
# [2] = system: IL-1β gene expression; experiment: IL-1β gene expression (RT-qPCR) in LPS-stimulated RAW 264.7 macrophages; type: cell-based, murine; settings: for reduction of LPS-induced expression of IL-1β vs untreated, LPS-stimulated controls (FIG. 3B): CBD 0.1 μM, BCP 0.013 μM (p<0.01), combination 0.1 μM + 0.013 μM (7.7:1, p<0.001)
# Description: RAW 264.7 cells were cultured in Dulbecco's Modified Eagle's Medium (high glucose DMEM, Sigma-Aldrich) supplemented with 10% fetal bovine serum (FBS), 1% L-glutamine, 1% Sodium-pyruvate, 1% Penicillin-Streptomycin (culture medium). The cells were maintained in T75 flasks at 37° C. in humidified air containing 5% CO2 in an incubator and passaged every second-third day.
# For drug treatment and LPS stimulation, 200,000 cells/well were seeded in 1.5 mL culture medium in a 6-well plate and incubated to allow attachment to the cell culture plate. After attachment, cells were incubated with various concentrations of CBD (0.1 μM, 0.3 μM, 1 μM, 3 μM, 5 μM, 10 μM, and 30 μM) or BCP (0.001 μM, 0.01 μM, 0.013 μM, 0.1 μM, 0.3 μM, 1 μM, 3 μM, 5 μM, 10 μM, and 100 μM), or vehicle (control) for 2 hrs. After the 2 h incubation, 0.1 μg/mL LPS was added to each well to induce inflammation and cells were incubated with LPS for 24 hrs.
# After the 24 h incubation with LPS, the cells were harvested and gene expression of the pro-inflammatory cytokines interleukin (IL)-1α, IL-1β were measured by quantitative real-time polymerase chain reaction (RT-qPCR) on a Roche Light Cycler 480 QPCR System (Roche Applied Sciences) using the 5′ nuclease assay. Total RNA was isolated using TRIzol (LifeTechnologies), DNase treatment was performed according to the manufacturer's protocol, and then 1 μg of total RNA was reverse-transcribed into cDNA using High Capacity cDNA Kit from Life Technologies Corporation. PCR amplification was performed using the TaqMan primers and probes (assay IDs: Mm00439620_m1 for murine Il1a; Mm00434228_m1 for murine Il1b, Mm00446190_m1 for murine 116, Mm00441263_m1 for murine Cxcl15/Il8). Expression of the housekeeping gene, Gapdh, was used (assay ID: […]) as an internal control. The amount of the transcripts was normalized to those of the housekeeping gene using the ΔCT method. Results are expressed as % decrease in the expression levels of IL1α and IL1β in drug-treated, LPS-stimulated groups compared to the expression of each cytokine gene in the vehicle-treated, LPS-stimulated group (regarded as 100%). All experiments were repeated 2-3 times.
# For statistical analysis, data were analyzed and graphs were plotted using Origin Pro Plus 6.0 software (Microcal, Northampton, Mass., USA) and Student's two-tailed two samples t-test. p<0.05 values were regarded as significant differences.
# [3] = system: male NMRI mice, carrageenan-induced paw edema; experiment: Carrageenan-induced paw edema, plethysmometry; type: in vivo, mouse; settings: for basal paw volume vs vehicle-treated mice: single doses i.p. (CBD 0.5, 1, 10, 30 mg/kg; BCP 1, 5, 10, 30 mg/kg), 30 min after administration
# Description: as §1, §2
# Baseline and post-carrageenan injection paw volume was determined by plethysmometry (Ugo Basile Plethysmometer 7140, Comerio, Italy) and expressed in cubic centimeter (cm^3). Paw edema was presented as percentage increase of baseline values obtained prior to carrageenan administration (Bolcskei K. et al., Pain. 2005; 117:368-76).
# [4] = Table 3A experiment, single agent 0.1 μM
# [5] = Table 3A experiment, single agent 1 μM
# [6] = Table 3A experiment, single agent 5 μM
# [7] = Table 3A experiment, single agent 10 μM
# [8] = Table 3B experiment, single agent 0.1 μM
# [9] = Table 3B experiment, single agent 0.3 μM
# [10] = Table 3B experiment, single agent 1.0 μM
# [11] = Table 3B experiment, single agent 3.0 μM
# [12] = Table 3B experiment, single agent 10 μM
# [13] = Table 4 Exp. 1: CBD 0.1 μM, BCP 0.013 μM, CBD + BCP 0.1 μM + 0.013 μM
# [14] = Table 4 Exp. 2: CBD 1 μM, BCP 0.13 μM, CBD + BCP 1 μM + 0.13 μM
# [15] = most CBD and BCP single dose pre-treatments, three hours after i.pl. carrageenan
Structure (SMILES),effect on mechanonociceptive threshold when applied alone [1],suppression of the mechanonociceptive threshold by carrageenan [1],basal mechanonociceptive threshold vs vehicle-treated mice [1],"reduction of LPS-induced expression of IL-1β vs untreated, LPS-stimulated controls (FIG. 3B) [2]","% decrease in IL1β expression [2, 4] [%]","% decrease in IL1β expression [2, 5] [%]","% decrease in IL1β expression [2, 6] [%]","% decrease in IL1β expression [2, 7] [%]","% decrease in IL1β expression [2, 8] [%]","% decrease in IL1β expression [2, 9] [%]","% decrease in IL1β expression [2, 10] [%]","% decrease in IL1β expression [2, 11] [%]","% decrease in IL1β expression [2, 12] [%]","% decrease in IL-1β gene expression [2, 13] [%]","% decrease in IL-1β gene expression [2, 14] [%]","carrageenan-induced increase of the paw volume [3, 15]",basal paw volume vs vehicle-treated mice [3],further results
"C=C1CC/C=C(\C)CC[C@H]2[C@H]1CC2(C)C [BCP, (E)-beta-caryophyllene]",negligible effects,only mildly influenced,none of the investigated single doses of CBD and BCP influenced the basal mechanonociceptive threshold,did significantly reduce,11,19,62,7,1.8 ± 0.2,5.8 ± 1.2,0,0,8.2 ± 4.1,34,0,only mildly influenced,none of the investigated single doses of CBD or BCP influenced the basal paw volume,"carrageenan-induced mechanical hyperalgesia ([1]; 30 mg/kg i.p., vs vehicle, p<0.001): significantly reduced; % Inhibition BCP Alone (IL-1β gene expression) ([2]; 0.001 μM BCP alone): 0%; % Inhibition BCP Alone (IL-1β gene expression) ([2]; 0.01 μM BCP alone): 0%; % Inhibition BCP Alone (IL-1β gene expression) ([2]; 0.1 μM BCP alone): 1.8 ± 0.2%; % Inhibition BCP Alone (IL-1β gene expression) ([2]; 0.3 μM BCP alone): 5.8 ± 1.2%; % Inhibition BCP Alone (IL-1β gene expression) ([2]; 1 μM BCP alone): 0%; % Inhibition BCP Alone (IL-1β gene expression) ([2]; 3 μM BCP alone): 0%; % Inhibition BCP Alone (IL-1β gene expression) ([2]; 10 μM BCP alone): 8.2 ± 4.1%; % Inhibition BCP Alone (IL-1β gene expression) ([2]; 100 μM BCP alone, * indicates possibly cytotoxicity): *94.2 ± 11.3%; % decrease in IL1β expression ([2]; Table 3B experiment, single agent 0.001 μM): 0%; % decrease in IL1β expression ([2]; Table 3B experiment, single agent 0.01 μM): 0%; % decrease in IL1β expression ([2]; Table 3B experiment, single agent 100 μM): 94.2 ± 11.3%; carrageenan-induced paw edema ([3]; 30 mg/kg i.p., three hours after carrageenan, vehicle 60%, p<0.0001): 20%"
"C=C(C)[C@@H]1CCC(C)=C[C@H]1c1c(O)cc(CCCCC)cc1O [CBD, cannabidiol]",negligible effects,only mildly influenced,none of the investigated single doses of CBD and BCP influenced the basal mechanonociceptive threshold,did not significantly reduce,19,11,31,33,5.8 ± 1.4,9 ± 3.6,39.2 ± 10.1,85.6 ± 10,92.2 ± 8.4,13,55,only mildly influenced,none of the investigated single doses of CBD or BCP influenced the basal paw volume,"carrageenan-induced drop of the mechanonociceptive threshold ([1]; 0.5 mg/kg CBD alone): not influenced; carrageenan-induced drop of the mechanonociceptive threshold ([1]; 1 mg/kg CBD alone): not influenced; % Inhibition CBD Alone (IL-1β gene expression) ([2]; 0.1 μM CBD alone): 5.8 ± 1.4%; % Inhibition CBD Alone (IL-1β gene expression) ([2]; 0.3 μM CBD alone): 9 ± 3.6%; % Inhibition CBD Alone (IL-1β gene expression) ([2]; 1 μM CBD alone): 39.2 ± 10.1%; % Inhibition CBD Alone (IL-1β gene expression) ([2]; 3 μM CBD alone): 85.6 ± 10%; % Inhibition CBD Alone (IL-1β gene expression) ([2]; 10 μM CBD alone): 92.2 ± 8.4%; carrageenan-induced increase of the paw volume ([3]; 0.5 mg/kg CBD alone, 3 hours after carrageenan): not influenced; carrageenan-induced increase of the paw volume ([3]; 1 mg/kg CBD alone, 3 hours after carrageenan): not influenced"

# — US11154515B2, “Pharmaceutical compositions comprising cannabidiol and beta-caryophyllene and methods for their use” (priority 2017, dated 2021)
